These results are taken from article PMC7169845, “Synthesis and Bioactivity of Phthalimide Analogs as Potential Drugs to Treat Schistosomiasis, a Neglected Disease of Poverty” (Pharmaceuticals, 2020).

One experiment relates to HepG2-A16-CD81EGFP cells. Nature of the experiment: HepG2 cell cytotoxicity assay (CellTiter-Glo). Format: cell-based. The conditions noted are these: Homo sapiens, 72 h; for EC50: counter toxicity. How it is done:
HepG2-A16-CD81EGFP cells (human hepatocarcinoma HepG2 cells stably transformed to express the tetraspanin CD81 receptor [51, 52]) were cultured at 37 °C in 5% CO2 in DMEM (without phenol red; Thermo Fisher Scientific, Waltham, MA, USA) supplemented with 10% FBS, 0.29 mg/mL glutamine, 100-unit penicillin and 100 μg/mL streptomycin. For cytotoxicity assays, compounds were prepared in 12-point 1:3 serial dilutions in DMSO starting at 10 mM. Then, 50 nL of compound (0.5% final DMSO concentration) were transferred with an Acoustic Transfer System (ATS) (Biosero) into white, solid bottom 1536-well assay plates (Greiner BioOne custom GNF mold; Monroe, NC, USA). Puromycin (12-point serial dilution starting at 10 μM) and 0.5% DMSO were used as positive and negative controls, respectively. After addition of compound, HepG2-A16-CD81EGFP cells in 10 µL of the above medium (5% FBS) were seeded into the assay plates at a density of 3,000 cells per well. Assay plates were incubated at 37 °C in 5% CO2for 72 h. To assess the HepG2 viability, the assay medium was removed by inverted centrifugation of the plate at 150 xg for 30 s. Then, 2 μL per well of CellTiter-Glo reagent (Promega diluted 1:2 with deionized water) was added using a MicroFlo liquid handler (BioTek). Immediately after addition of the CellTiter-Glo reagent, the luminescence was measured with an EnVision Multilabel reader (PerkinElmer). EC50 values were calculated using the normalized bioluminescence intensity and a non-linear, variable slope, four-parameter regression curve-fitting model in Prism 5 (GraphPad Software Inc., San Diego, CA, USA).
For orientation: In ATP-based viability assays light output follows the ATP content of the culture.

Experiment [1] concerns S. mansoni somules (schistosomula, post-infective larvae). Nature of the experiment: Phenotypic screen of S. mansoni somules (severity score). Format: cell-based, Schistosoma mansoni. The conditions noted are these: for Somule Severity Score (10 µM) 24 h: score 0 (no effect) to 4 (maximum), averaged across two experiments; for Somule Severity Score (10 µM) 24 h / SOMULE SEVERITY SCORES @ 10 µM, 24: 24 h; for SOMULE SEVERITY SCORES @ 10 µM, 24 / SOMULE SEVERITY SCORES @ 10 µM, 48 / SOMULE SEVERITY SCORES @ 10 µM, 72: score 0-4; for SOMULE SEVERITY SCORES @ 10 µM, 48 / Somule Severity Score (10 µM) 48 h: 48 h. How it is done: (§1) Functionalized Pht-based molecules were synthesized, and phenotypically screened at 10 µM as a function of time against S. Mansoni somules (up to 72 h) and adults (up to 24 h). The resulting phenotypes were classified using a previously described nomenclature that records the many non-exclusive changes (descriptors) that can occur in the parasite in response to chemical insult. Each descriptor is converted into a value from 0 (no effect) to 4 (maximal effect) to allow for comparisons of effects on the parasite between compounds [40, 41, 42, 43]. For consistency, we consider a score of 2 to be the minimum for a compound to be considered active.
(§2) Maintenance of the S. mansoni (Naval Medical Research Institute (NMRI) isolate), life cycle involved male Golden Syrian Hamsters and Biomphalaria glabrata snails (NMRI isolate), as the definitive and intermediate hosts, respectively. Use of hamsters was approved by the Institutional Animal Care and Use Committee of the University of California San Diego. The preparation of somules (post-infective larvae derived from infectious larvae called cercariae) and adult worms (≥42-days-old), and their co-incubation with test compounds using a customized Basch incubation medium were as described. Screens of two developmental stages were employed in order to identify compounds with a potential broader spectrum of efficacy than the current drug, PZQ, which is deficient in this regard. Screens with somules employed 96-well round-bottomed plates and 40–50 animals/well, whereas screens with adults employed 24-well flat-bottomed plates and approximately 5–7 males and 2–3 females/well. Screens employed a final compound concentration of 10 µM in DMSO (at 0.5% and 0.1% final concentrations for somules and adults, respectively). The complex and often dynamic phenotypic responses that the schistosome parasite is capable of were observed using an Axiovert A1 inverted microscope at the times indicated in the data table. Observations were codified using a defined nomenclature that involves simple “descriptors”, to convey changes in shape, motility and appearance compared to DMSO controls. Each descriptor was given a value of 1 and these were added up to yield a “severity score” with a maximum of 4. Evidence of degeneracy or death was awarded a value of 4 for adult parasites specifically, the inability to adhere to the bottom of the well using oral or ventral suckers was given a score of 1 and damage to the tegument (surface) was awarded a value of 4 on the understanding that such damage in vivo would compromise survival. Scores were averaged across the two experiments.

For another experiment, the system named is S. mansoni adults. As to the kind of experiment: Phenotypic screen of S. mansoni adult worms (severity score). Format: cell-based, Schistosoma mansoni. The conditions noted are these: for ADULT SEVERITY SCORES @ 10 µM, 1 h / ADULT SEVERITY SCORES @ 10 µM, 5 h / ADULT SEVERITY SCORES @ 10 µM, 24 h: score 0-4; for Adult Severity Score (10 µM) 1 h / Adult Severity Score (10 µM) 5 h / Adult Severity Score (10 µM) 24 h: score 0 to 4. The protocol: as §1, §2

In the case of `CC(c1nc2ccccc2n1Cc1cn(-c2ccc(F)cc2)nn1)N1C(=O)c2ccccc2C1=O` (stereo not shown) [6y, 2-(1-(1-((1-(4-Fluorophenyl)-1H-1,2,3-triazol-4-yl)methyl)-1H-benzo[d]imidazol-2-yl)ethyl)isoindoline-1,3-dione], in the experiment with HepG2-A16-CD81EGFP cells, the IC50 – broadly, the concentration that inhibits the measured activity by half – is greater than 100 µM and the concentration for a half-maximal effect (EC50) (as a rule, the concentration that produces a half-maximal response) is greater than 100 µM. In experiment [1], the “Somule Severity Score (10 µM) 24 h” value is 0; the “SOMULE SEVERITY SCORES @ 10 µM, 24” value is given as 0; the “SOMULE SEVERITY SCORES @ 10 µM, 48” value came out at 0. Further, the “Somule Severity Score (10 µM) 48 h” value in experiment [1] (score 0 to 4) was found to be 0. Besides, the “SOMULE SEVERITY SCORES @ 10 µM, 72” value in experiment [1] (72 h) was determined as 0. In experiment [1] (72 h, score 0 to 4), the “Somule Severity Score (10 µM) 72 h” value is 0. Further, in the experiment on S. mansoni adults, the “ADULT SEVERITY SCORES @ 10 µM, 1 h” value was 0; the “Adult Severity Score (10 µM) 1 h” value came to 0; the “ADULT SEVERITY SCORES @ 10 µM, 5 h” value stood at 0; the “Adult Severity Score (10 µM) 5 h” value is 0. In the experiment with S. mansoni adults, the “ADULT SEVERITY SCORES @ 10 µM, 24 h” value worked out at 0 and the “Adult Severity Score (10 µM) 24 h” value turned out to be 0.
As for `CCC(C)C(c1nc2ccccc2n1Cc1cn(-c2c(F)cccc2F)nn1)N1C(=O)c2ccccc2C1=O` (stereo not shown) [6x, 2-(1-(1-((1-(2,6-Difluorophenyl)-1H-1,2,3-triazol-4-yl)methyl)-1H-benzo[d]imidazol-2-yl)-2-methylbutyl)isoindoline-1,3-dione], in the experiment on HepG2-A16-CD81EGFP cells, the IC50 is greater than 100 µM and the EC50 is greater than 100 µM. Besides, in experiment [1], the “Somule Severity Score (10 µM) 24 h” value is 0; the “SOMULE SEVERITY SCORES @ 10 µM, 24” value was found to be 0; the “SOMULE SEVERITY SCORES @ 10 µM, 48” value is 0. Further, in experiment [1] (score 0 to 4), the “Somule Severity Score (10 µM) 48 h” value is 0. Besides, the “SOMULE DESCRIPTORS @ 10 µM, 72 h” value in experiment [1] (72 h, phenotypic descriptors) was “Dark, R”. Moreover, the “SOMULE SEVERITY SCORES @ 10 µM, 72” value in experiment [1] (72 h) turned out to be 2. In the experiment on S. mansoni adults, the “ADULT SEVERITY SCORES @ 10 µM, 1 h” value was determined as 0; the “Adult Severity Score (10 µM) 1 h” value was 0; the “ADULT SEVERITY SCORES @ 10 µM, 5 h” value is recorded as 0; the “Adult Severity Score (10 µM) 5 h” value was 0. Further, in the experiment on S. mansoni adults, the “ADULT SEVERITY SCORES @ 10 µM, 24 h” value is reported as 0 and the “Adult Severity Score (10 µM) 24 h” value came out at 0.
